In general, IC50 refers to the concentration that inhibits the measured activity by half.

Read-outs that look alike come from different tables or passages of the source.

The test addresses T1, Recombinant human Src (Homo sapiens, UniProt P12931).
T1 construct: made in house; host or cells: baculovirus-insect cell system
Briefly: Src tyrosine kinase activity, poly E4Y / 32P-ATP phosphorylation assay. The class given is biochemical. Particulars: for inhibition at 15 µg/mL: compound at 15 μg/mL; for IC50: NI = no inhibition at 100 μg/mL. On the procedure: Recombinant human Src was expressed using the baculovirus-insect cell system and purified as published (Budde et al., 1993 and 2000).
The tyrosine kinase activity of Src, Csk and FGFr was determined using poly E4Y and ^32P-ATP. Briefly, enzymes were assayed in a reaction mixture consisting of 0.15 M EPPS-NaOH (pH 8.0) with 6 mM MgCl2, 0.2 mM γ^32P-ATP (0.2-0.4 mCi/μmol), 10% glycerol, 0.1% Triton X-100, and poly E4Y. Poly E4Y is a synthetic peptide whose phosphorylation is measured in this assay by the addition of the radioactively labeled phosphate from the ATP (Budde et al., 1995). […] When ATP was varied (0, 50, 100 and 250 μM), poly E4Y was kept constant at 150 μg/ml.

Where [1] appears, read: Table 3, read-out: % Inhibition at 15 μg/mL Src (%).
[2] abbreviates: read-out: % Inhibition at 15 μg/mL Src %.

T1 sequence (P12931 whole entry): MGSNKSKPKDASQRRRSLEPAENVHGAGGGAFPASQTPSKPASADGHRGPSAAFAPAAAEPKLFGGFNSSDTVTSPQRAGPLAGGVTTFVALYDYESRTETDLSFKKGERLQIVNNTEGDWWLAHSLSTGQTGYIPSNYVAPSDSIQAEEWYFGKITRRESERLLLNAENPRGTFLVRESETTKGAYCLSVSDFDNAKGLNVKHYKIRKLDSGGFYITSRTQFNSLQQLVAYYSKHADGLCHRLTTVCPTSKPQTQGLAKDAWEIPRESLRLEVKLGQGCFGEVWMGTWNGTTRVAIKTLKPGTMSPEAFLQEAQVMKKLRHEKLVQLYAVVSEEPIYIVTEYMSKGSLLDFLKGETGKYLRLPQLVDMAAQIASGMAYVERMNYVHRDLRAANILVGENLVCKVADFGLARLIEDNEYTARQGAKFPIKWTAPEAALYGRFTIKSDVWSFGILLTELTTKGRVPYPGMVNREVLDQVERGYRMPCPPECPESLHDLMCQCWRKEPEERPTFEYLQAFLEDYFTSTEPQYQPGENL

Turning to `COc1ccc(Oc2ccc(NS(=O)(=O)c3ccc(C)cc3)c(NS(=O)(=O)c3ccc(C)cc3OC)c2)cc1` [Compound 22hh, 2-methoxy-N-[5-(4-methoxy-phenoxy)-2-(4-toluenesulfonylamino)-phenyl]-4-methyl-benzenesulfonamide], under setting [1], the inhibition at 15 µg/mL amounted to 17%.
Turning to `COc1ccc(Oc2cc(NS(=O)(=O)c3ccc(C)cc3)c(NS(=O)(=O)c3ccc(C)cc3)cc2C(=O)O)cc1` [Compound 34, 2-(4-methoxy-phenoxy)-4,5-bis-(4-toluenesulfonylamino)-benzoic acid], under “Table 4, Formula III compounds”, the IC50 was determined as 77 µM.
Regarding `COc1ccc(Oc2ccc(N)c(NS(=O)(=O)c3ccc(C)cc3)c2)cc1` [Compound 71a, N-[2-amino-5-(4-methoxy-phenoxy)-phenyl]-4-toluenesulfonamide], under setting [2], the inhibition at 15 µg/mL turned out to be 13%.
`Cc1ccc(S(=O)(=O)Nc2ccc(C(=NO)c3ccccc3)cc2NS(=O)(=O)c2ccc(C)cc2)cc1` [Compound 22jj, N-[4-(hydroxyimino-phenyl-methyl)-2-(4-toluenesulfonylamino)-phenyl]-4-toluenesulfonamide]: under setting [1], the inhibition at 15 µg/mL turned out to be 16%.
On the same count and under the same terms, with `COc1ccc(Oc2ccc(NS(C)(=O)=O)c(NS(=O)(=O)c3ccc(C)cc3)c2)cc1` [Compound 22p, N-[2-methanesulfonylamino-5-(4-methoxy-phenoxy)-phenyl]-4-toluenesulfonamide] the figure was 17%.
Consider `C=CCc1c(OCc2ccc(OC)cc2)ccc(NS(=O)(=O)c2ccc(C)cc2)c1NS(=O)(=O)c1ccc(C)cc1` [Compound 15a, N-[3-allyl-4-(4-methoxy-benzyloxy)-2-(4-toluenesulfonylamino)-phenyl]-4-toluenesulfonamide], for which the IC50 (Table 3, Formula II compounds) amounted to 212 µM.
Take `COc1ccc(Oc2ccc(NS(=O)(=O)c3ccc(C)cc3)c(NC(=O)NS(=O)(=O)c3ccc(C)cc3)c2)cc1` [Compound 71ii, N-{4-(4-methoxy-phenoxy)-2-[3-(4-toluenesulfonyl)-ureido]-phenyl}-4-toluenesulfonamide]: under setting [2], the inhibition at 15 µg/mL is 21%.
Regarding `COC(=O)c1c(S(=O)(=O)Nc2cc(Oc3ccc(OC)cc3)ccc2NS(=O)(=O)c2ccc(C)cc2)c(C)n(C)c1C` [Compound 22dd, methyl 4-[5-(4-methoxy-phenoxy)-2-(4-toluenesulfonylamino)-phenylsulfamoyl]-1,2,5-trimethyl-1H-pyrrole-3-carboxylate], the inhibition at 15 µg/mL under setting [1] was 5%.
Still for that read-out and setting: with `COc1ccc(Oc2ccc(NS(=O)(=O)c3ccc(-c4ccon4)s3)c(NS(=O)(=O)c3ccc(C)cc3)c2)cc1` [Compound 22v, 5-isoxazol-3-yl-N-[4-(4-methoxy-phenoxy)-2-(4-toluenesulfonylamino)-phenyl]-thiophene-2-sulfonamide] the figure was 22%.
With `COc1ccc(Oc2ccc(NS(=O)(=O)c3ccc(Br)s3)c(NS(=O)(=O)c3ccc(C)cc3)c2)cc1` [Compound 22bb, N-[4-(4-methoxy-phenoxy)-2-(4-toluenesulfonylamino)-phenyl]-5-bromo-thiophene-2-sulfonamide], the IC50 (Table 3, Formula II compounds) amounted to 19.5 µM.
For the compound `COc1ccc(Oc2cc(N)c(NS(=O)(=O)c3ccc(C)cc3)cc2C(F)(F)F)cc1` [Compound 71ee, N-[2-amino-4-(4-methoxy-phenoxy)-5-trifluoromethyl-phenyl]-4-toluenesulfonamide], the inhibition at 15 µg/mL under setting [2] amounted to 21%.
In the case of `COc1ccc(Oc2ccc(NS(=O)(=O)c3cn(C)cn3)c(NS(=O)(=O)c3ccc(C)cc3)c2)cc1` [Compound 22s, N-[4-(4-methoxy-phenoxy)-2-(4-toluenesulfonylamino)-phenyl]-1-methyl-1H-imidazole-4-sulfonamide], the inhibition at 15 µg/mL under setting [1] was found to be 3%.
The same measure, in the same setting: with `COC(=O)c1c(S(=O)(=O)Nc2ccc(Oc3ccc(OC)cc3)cc2NS(=O)(=O)c2ccc(C)cc2)c(C)n(C)c1C` [Compound 22w, methyl 4-[4-(4-methoxy-phenoxy)-2-(4-toluenesulfonylamino)-phenylsulfamoyl]-1,2,5-trimethyl-1H-pyrrole-3-carboxylate] the figure was 6%.

Source of the values: patent publication US20060004197A1, “Sulfonamide-based compounds as protein tyrosine kinase inhibitors” (priority 2004, published 2006).
